Test system: progenitor stem cells in the subgranular zone (SGZ) of the hippocampus
Assay: BrdU immunostaining, long-term survivability of progenitor stem cells in SGZ
Assay type: in vivo, rat
Settings: for number of surviving cells in the SGZ relative to saline controls / basal levels: 4 weeks after the last BrdU injection
Procedure: Antidepressant treatment and BrdU dosing. Dosing of adult male Sprague Dawley rats was performed as described above for 14 days (n=10 rats per group). To evaluate the effect of chronic antidepressant treatment on proliferation of progenitor stem cells, 24 hours after the last antidepressant injection, rats were administered BrdU (Sigma, St. Louis, Mo.) (50 mg/kg rig ip injection twice a day) for 4 days prior to euthanesia. To evaluate the effect of chronic antidepressant treatment on survival of progenitor stem cells, a sub-group of rats were allowed to live for 4 weeks after BrdU injection. All rats were perfused through the ascending aorta with 50 ml of 0.9% saline, followed by 400 ml of freshly prepared 4% paraformaldehyde in PBS (pH 7.5). After 30-60 minutes post-perfusion, rat brains were removed and postfixed in 4% paraformaldehyde in PBS overnight, followed by immersion in 30% sucrose/PBS solution for 48-72 hours at 4° C. Brains were rapidly frozen on dry-ice and stored at −80° C. Brain sectioning and staining for BrdU immunoreactivity were performed as previously described by Malberg et al. (2000). Briefly, serial coronal sections of each brain were cut (35 μm thickness) through the entire hippocampus (stereotaxic plates 26-40 according to Paxinos, Watson and Emson, 1980) using a freezing microtome. Every sixth section throughout the hippocampus was processed for BrdU staining. Free-floating sections were maintained in 100 mM PBS (about 100 sections per brain). DNA denaturation of the sections was performed as follows: sections were treated with 50% formamide/50% 2×SSC (0.3 M NaCl/0.03 M sodium citrate) for 2 hours at 65° C., rinsed in PBS (2 times for 5 minutes at room temperature), incubated with 2 N HCl for 30 minutes, followed by 0.1 M boric acid buffer (pH 8.5) for 10 minutes and a final rinse in PBS. For BrdU immunostaining, sections were incubated with 3% H2O2 in PBS for 30 minutes, rinsed in PBS and blocked with 3% normal horse serum in 0.01% TritonX-100 for 30 minutes. Anti-mouse BrdU (1:250 Sigma) was applied to the free-floating sections and incubated overnight at 4° C. The sections were rinsed in PBS, incubated with biotinylated horse, anti-mouse IgG (Vector Lab) for 30 minutes and washed in PBS. ABC reagent complex (Vectastain Elite kit from Vector) was added (as per manufacturer's instructions) for 30 minutes, followed by rinsing in PBS and color development with DAB solution for 4 minutes. Sections were mounted on glass slides and coverslipped. All BrdU labeled cells in the subgranular zone (SGZ) were counted in each section by an experimenter blinded to the study code. All counts were performed at 200× magnification using a light microscope (Zeiss Axiovert 135). The total number of BrdU labeled cells per section were determined and multiplied by 12 to obtain the total number of cells per dentate gyrus. Comparative analyses between treatments were performed using a Tukey HSD post hoc analysis for multiple comparisons.
In vivo studies were performed to measure the effects of antidepressant drug treatment on adult hippocampal neurogenesis by immunological methods. The method used to detect cell proliferation involved 5-bromo-2-deoxyuridine (BrdU) dosing twice a day for 4 days after a 2 week systemic administration of either saline, fluoxetine or venlafaxine. The presence of BrdU within the vicinity of dividing progenitor stem cells in the hippocampal region allowed for its incorporation and the detection of DNA synthesis (the more cell proliferation the more DNA synthesis). The number of BrdU-positive cells was visualized by immunoperoxidase staining. The BrdU immunostaining and quantitative results indicated a significant increase (˜33%) in the proliferation rate of progenitor stem cells in the subgranular zone (SGZ) of the hippocampus for both venlafaxine (P<0.01; n=5) and fluoxetine (P<0.01; n=5) versus saline controls. […]

| SMILES | number of surviving cells in the SGZ relative to saline controls / basal levels (FIG. 1B) | number of surviving cells in the SGZ relative to saline controls / basal levels (FIG. 1B, listed as fluoxetine) | sustainability in the rate of proliferation and survivability of progenitor stem cells over basal levels (4 weeks after the last antidepressant dose) [%] | overall number of surviving cells, venlafaxine versus fluoxetine (FIG. 1B, P<0.01) | more cells compared with fluoxetine (long-term survivability, venlafaxine versus fluoxetine) [%] |
| --- | --- | --- | --- | --- | --- |
| CNCCC(Oc1ccc(C(F)(F)F)cc1)c1ccccc1 (stereo not drawn) [Fluoxetine, fluoxetine] | significant preservation of proliferative and survivability effects over basal levels | increased the number of surviving cells in the SGZ | – | – | – |
| COc1ccc(C(CN(C)C)C2(O)CCCCC2)cc1 (stereo not drawn) [Venlafaxine, venlafaxine] | increased the number of surviving cells in the SGZ | – | 80 | significant increase in the overall number of surviving cells | ~40 |

From patent publication US20080293583A1, “Methods for diagnosing mood disorders” (Wyeth, priority 2003, published 2008)
